Test results as given in the NIST ThermoML archive (doi:10.1021/je900266h).

Assays:
[1] = refractive index (Na D-line) (dimensionless); mn = molality of the nth substance listed, in mol/kg; conditions: 101 kPa, Liquid, Standard Abbe refractometry
[2] = refractive index (Na D-line) (dimensionless); conditions: 101.33 kPa, Liquid, Standard Abbe refractometry
[3] = refractive index (Na D-line) (dimensionless); wn = mass fraction of the nth substance listed; conditions: 101 kPa, Liquid, Standard Abbe refractometry, w2 = 0

O=S(=O)([O-])[O-].[Cu+2] [copper sulfate] + O
refractive index, [1]
Conditions	288.15 K	298.15 K	308.15 K	318.15 K
m1 = 0.1346	1.33752	1.33658	1.33528	1.33371
m1 = 0.3007	1.34217	1.34125	1.33987	1.33834
m1 = 0.4408	1.34604	1.3451	1.3436	1.34204
m1 = 0.5896	1.35008	1.34915	1.34753	1.34587
m1 = 0.7359	1.35392	1.35287	1.35129	1.34951
m1 = 0.859	1.35712	1.35606	1.35427	1.35249
m1 = 1.016	1.36104	1.36002	1.35816	1.35632
m1 = 1.179	1.3651	1.36398	1.36209	1.36027
m1 = 1.301	1.36803	1.367	1.365	1.36305
m1 = 1.456	–	1.3706	1.36872	1.36664
m1 = 1.579	–	–	1.37162	1.36952
m1 = 1.736	–	–	–	1.37296
m1 = 1.891	–	–	–	1.37632
m1 = 2.058	–	–	–	1.38013

CCO [ethanol]
[2]
Conditions	refractive index
288.15 K	1.36344
298.15 K	1.35922
308.15 K	1.35477
318.15 K	1.35068

O=S(=O)([O-])[O-].[Li+].[Li+] [lithium sulfate] + O
refractive index, [1]
Conditions	288.15 K	298.15 K	308.15 K	318.15 K
m1 = 0.252	1.3383	1.33727	1.33612	1.33446
m1 = 0.4681	1.34212	1.34096	1.33987	1.33812
m1 = 0.7337	1.34651	1.34534	1.34419	1.3426
m1 = 0.9917	1.35062	1.34944	1.34829	1.3467
m1 = 1.245	1.3544	1.35316	1.35198	1.35056
m1 = 1.468	1.35752	1.35628	1.35518	1.35375
m1 = 1.756	1.3614	1.36011	1.35905	1.35765
m1 = 1.757	1.36143	1.36015	1.35909	1.35767
m1 = 1.939	1.36365	1.36242	1.36134	1.35998
m1 = 2.124	1.36601	1.36472	1.36368	1.36227
m1 = 2.306	1.36812	1.36691	1.36574	1.36453
m1 = 2.542	1.3709	1.36964	1.3685	1.3672
m1 = 2.798	1.3736	1.37243	1.37124	1.37003
m1 = 2.983	1.37551	1.37442	1.37316	1.37206
m1 = 3.158	1.37704	–	–	–
m1 = 3.22	1.37774	–	–	–

O=S(=O)([O-])[O-].[Mg+2] [magnesium sulfate] + O
refractive index, [1]
Conditions	288.15 K	298.15 K	308.15 K	318.15 K
m1 = 0.2096	1.33858	1.33762	1.33629	1.33491
m1 = 0.3448	1.34163	1.34072	1.3393	1.33803
m1 = 0.5911	1.3471	1.34594	1.34463	1.34335
m1 = 0.7832	1.35115	1.35009	1.34872	1.34735
m1 = 0.9997	1.35558	1.35438	1.35295	1.3516
m1 = 1.19	1.35934	1.3581	1.35667	1.35532
m1 = 1.379	1.36292	1.36174	1.36037	1.35894
m1 = 1.621	1.3674	1.36613	1.36468	1.36342
m1 = 1.867	1.37176	1.37039	1.36899	1.3677
m1 = 2.12	1.376	1.37469	1.3732	1.37185
m1 = 2.36	1.37993	1.37853	1.37709	1.37586
m1 = 2.592	1.38344	1.38211	1.38069	1.37944
m1 = 2.859	–	1.38613	1.38461	1.38352
m1 = 3.087	–	1.38927	1.3878	1.38662
m1 = 3.347	–	–	1.39151	1.39026
m1 = 3.579	–	–	1.3945	1.39328
m1 = 3.807	–	–	–	1.39614
m1 = 3.998	–	–	–	1.39817

O [water]
[2]
Conditions	refractive index
288.15 K	1.33339
298.15 K	1.33248
308.15 K	1.33128
318.15 K	1.32979

O [water] + CCO
[3]
Conditions	refractive index
288.15 K	1.33339
298.15 K	1.33248
308.15 K	1.33128
318.15 K	1.32979

O [water] + O=S(=O)([O-])[O-].[Cu+2]
[1], m2 = 0
Conditions	refractive index
288.15 K	1.33339
298.15 K	1.33248
308.15 K	1.33128
318.15 K	1.32979

O [water] + O=S(=O)([O-])[O-].[Li+].[Li+]
[1], m2 = 0
Conditions	refractive index
288.15 K	1.33339
298.15 K	1.33248
308.15 K	1.33128
318.15 K	1.32979

O [water] + O=S(=O)([O-])[O-].[Mg+2]
[1], m2 = 0
Conditions	refractive index
288.15 K	1.33339
298.15 K	1.33248
308.15 K	1.33128
318.15 K	1.32979
